The source of these data is US7772263B2, “Compounds for the treatment of inflammatory disorders” (Schering Corporation, priority 2006, dated 2010).

Structures are written as SMILES. pKi: −log10 of the molar value.

The target of one assay is T1, purified catalytic domain of recombinant human TACE (rhTACEc) (Homo sapiens, UniProt P78536, N452Q/S266A).
T1 construct: rhTACEc, Residue 215 to 477 with two mutation (S266A and N4520) and a 6×His tail; 6xHis (C); made in house; host or cells: baculovirus/Hi5 insect cells
T1 sequence (P78536 215-477 S266A/N452Q limits assumed): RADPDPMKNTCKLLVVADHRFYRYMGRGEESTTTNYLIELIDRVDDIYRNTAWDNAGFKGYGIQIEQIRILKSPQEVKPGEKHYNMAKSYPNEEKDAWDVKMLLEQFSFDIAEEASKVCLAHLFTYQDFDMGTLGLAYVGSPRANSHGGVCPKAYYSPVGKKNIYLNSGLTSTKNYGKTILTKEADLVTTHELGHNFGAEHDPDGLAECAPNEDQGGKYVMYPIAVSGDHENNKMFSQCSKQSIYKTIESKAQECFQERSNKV
As to the kind of experiment: TACE kinetic assay, cleavage of internally quenched fluorescent peptide substrate SPDL-3. The note with it: TACE inhibition, Table 1001; read-out: Ki Rating. It is filed as biochemical.
Consider `COc1ccc2c(c1)C(=O)N(C[C@@]1(C#Cc3cccnc3C)NC(=O)NC1=O)C2` [Compound 1003], for which the pKi was above 8.30.

Regarding `O=C1NC(=O)[C@@](C#Cc2cccnc2)(CN2Cc3ccc(Cl)cc3C2=O)N1` [Compound 1004], the pKi is above 8.30.

As to `COc1ccc2c(c1)C(=O)N(C[C@@]1(C#Cc3cncc(C)c3)NC(=O)NC1=O)C2` [Compound 1005], the pKi is above 8.30.

The assay is the same for the next values; noted with them: TACE; class letters A-D; read-out: Ki Rating.
As for `COc1ccc2c(c1)C(=O)N(C[C@@]1(C#Cc3cncc(Cl)c3)NC(=O)NC1=O)C2` [Compound 1006], the pKi is above 8.30.

In the case of `COc1ccc2c(c1)C(=O)N(C[C@@]1(C#Cc3ccc(F)cc3C)NC(=O)NC1=O)C2` [Compound 1007], the pKi is above 8.30.

As for `COc1ccc2c(c1)C(=O)N(C[C@@]1(C#Cc3ccc4nccnc4c3)NC(=O)NC1=O)C2` [Compound 1008], the pKi was above 8.30.

In the case of `COc1ccc2c(c1)C(=O)N(C[C@@]1(C#Cc3ccc4nc(N)[nH]c4c3)NC(=O)NC1=O)C2` [Compound 1009], the pKi was above 8.30.

As for `COc1ccc2c(c1)C(=O)N(C[C@@]1(C#Cc3ccc4c(c3)COC4=O)NC(=O)NC1=O)C2` [Compound 1010], the negative logarithm of the Ki (pKi) was above 8.30.

As for `COc1ccc2c(c1)C(=O)N(C[C@@]1(C#Cc3ccc4nc(C)[nH]c4c3)NC(=O)NC1=O)C2` [Compound 1011], the pKi was above 8.30.

Turning to `COc1ccc2c(c1)C(=O)N(C[C@@]1(C#Cc3ccc4[nH]cnc4c3)NC(=O)NC1=O)C2` [Compound 1012], the pKi was above 8.30.

On to `COc1ccc2c(c1)C(=O)N(C[C@@]1(C#Cc3cnc4[nH]c(=O)[nH]c4c3)NC(=O)NC1=O)C2` [Compound 1013], for which the pKi was above 8.30.

For `COc1ccc2c(c1)C(=O)N(C[C@@]1(C#Cc3cccc4[nH]ncc34)NC(=O)NC1=O)C2` [Compound 1014], the pKi was above 8.30.

In the case of `COc1ccc2c(c1)C(=O)N(C[C@@]1(C#Cc3cccc4cn[nH]c34)NC(=O)NC1=O)C2` [Compound 1015], the pKi was above 8.30.

As for `COc1ccc2c(c1)C(=O)N(C[C@@]1(C#Cc3ccc4[nH]c(=O)sc4c3)NC(=O)NC1=O)C2` [Compound 1016], the pKi was above 8.30.

For the molecule `COc1ccc2c(c1)C(=O)N(C[C@@]1(C#Cc3ccc4c(c3)sc(=N)n4C)NC(=O)NC1=O)C2` [Compound 1017], the pKi is above 8.30.

Regarding `COc1ccc2c(c1)C(=O)N(C[C@@]1(C#Cc3cccnc3C#N)NC(=O)NC1=O)C2` [Compound 1018], the pKi was above 8.30.

For the molecule `COc1ccc2c(c1)C(=O)N(C[C@@]1(C#Cc3ccc4c(c3)C(=O)NC4=O)NC(=O)NC1=O)C2` [Compound 1019], the pKi is above 8.30.

Take `COc1ccc2c(c1)C(=O)N(C[C@]1(C#Cc3ccc(SC(F)(F)F)cc3)NC(=O)NC1=O)C2` [Compound 1036]: the pKi was below 7.00.

On to `O=C1NC(=O)[C@@](C#Cc2ccc(F)cc2)(CN2Cc3ccc(F)cc3C2=O)N1` [Compound 1037], for which the negative-log Ki (pKi) is above 8.30.

On to `COc1ccc2c(c1)C(=O)N(C[C@@]1(C#Cc3ccc(SC(F)(F)F)cc3)NC(=O)NC1=O)C2` [Compound 1038], for which the pKi was above 8.30.

As to `COc1ccc2c(c1)C(=O)N(C[C@@]1(C#Cc3ccc(S(=O)(=O)C(F)(F)F)cc3)NC(=O)NC1=O)C2` [Compound 1039], the pKi is 7.60 to 8.30.

With `COc1ccc2c(c1)C(=O)N(C[C@@]1(C#Cc3cccc(O)c3)NC(=O)NC1=O)C2` [Compound 1040], the pKi is above 8.30.

Regarding `O=C1NC(=O)[C@@](C#Cc2cccc(F)c2)(CN2Cc3ccc(F)cc3C2=O)N1` [Compound 1041], the pKi was above 8.30.

For `O=C1NC(=O)[C@@](C#Cc2ccc(F)cc2F)(CN2Cc3ccc(F)cc3C2=O)N1` [Compound 1042], the negative-log Ki (pKi) was above 8.30.

In the case of `COc1ccc(C#C[C@]2(CN3Cc4ccc(OC)cc4C3=O)NC(=O)NC2=O)cc1` [Compound 1043], the pKi is above 8.30.

For the molecule `COc1ccc2c(c1)C(=O)N(C[C@@]1(C#Cc3cccc(C)c3)NC(=O)NC1=O)C2` [Compound 1044], the pKi was above 8.30.

Take `COc1ccc2c(c1)C(=O)N(C[C@@]1(C#Cc3ccc(C#N)cc3)NC(=O)NC1=O)C2` [Compound 1045]: the pKi was above 8.30.

For `CCOc1cccc(C#C[C@]2(CN3Cc4ccc(OC)cc4C3=O)NC(=O)NC2=O)c1` [Compound 1046], the pKi was above 8.30.

On to `COc1ccc2c(c1)C(=O)N(C[C@@]1(C#Cc3ccc4c(c3)CCO4)NC(=O)NC1=O)C2` [Compound 1047], for which the pKi was above 8.30.

In the case of `COc1ccc2c(c1)C(=O)N(C[C@@]1(C#Cc3cccc(CO)c3)NC(=O)NC1=O)C2` [Compound 1048], the pKi was above 8.30.

On to `COc1ccc2c(c1)C(=O)N(C[C@@]1(C#Cc3ccc(Cl)s3)NC(=O)NC1=O)C2` [Compound 1049], for which the pKi was above 8.30.

As for `CCOc1ccc(C#C[C@]2(CN3Cc4ccc(OC)cc4C3=O)NC(=O)NC2=O)cc1` [Compound 1050], the pKi was above 8.30.

As for `O=C1NC(=O)[C@](C#Cc2cccc(F)c2)(CN2Cc3ccc(F)cc3C2=O)N1` [Compound 1051], the pKi was 7.00 to 7.60.

`O=C1NC(=O)[C@](C#Cc2ccc(F)cc2F)(CN2Cc3ccc(F)cc3C2=O)N1` [Compound 1052]: the pKi was 7.00 to 7.60.

On to `COc1ccc2c(c1)C(=O)N(C[C@@]1(C#Cc3ccc4oc(C)cc4c3)NC(=O)NC1=O)C2` [Compound 1053], for which the negative-log Ki (pKi) is above 8.30.

As to `COc1ccc2c(c1)C(=O)N(C[C@@]1(C#Cc3cc(Cl)ccc3OC)NC(=O)NC1=O)C2` [Compound 1054], the pKi is above 8.30.

As for `COCc1cccc(C#C[C@]2(CN3Cc4ccc(OC)cc4C3=O)NC(=O)NC2=O)c1` [Compound 1055], the pKi is above 8.30.

With `COc1ccc2c(c1)C(=O)N(C[C@@]1(C#Cc3c(OC)ccc4c(C#N)cccc34)NC(=O)NC1=O)C2` [Compound 1056], the pKi was above 8.30.

Consider `COc1ccc2c(c1)C(=O)N(C[C@@]1(C#Cc3ccc(OC(C)C)cc3)NC(=O)NC1=O)C2` [Compound 1057], for which the pKi is above 8.30.

For the molecule `COc1ccc2c(c1)C(=O)N(C[C@@]1(C#Cc3ccc(OCC4CC4)cc3)NC(=O)NC1=O)C2` [Compound 1058], the pKi is above 8.30.

In the case of `COc1ccc2c(c1)C(=O)N(C[C@@]1(C#Cc3cccc(COCC4CC4)c3)NC(=O)NC1=O)C2` [Compound 1059], the pKi was above 8.30.

With `COc1ccc2c(c1)C(=O)N(C[C@@]1(C#Cc3ccc(C(C)=O)s3)NC(=O)NC1=O)C2` [Compound 1060], the pKi is above 8.30.

With `COc1ccc2c(c1)C(=O)N(C[C@@]1(C#Cc3ccc(C(C)O)s3)NC(=O)NC1=O)C2` (stereo partly shown) [Compound 1061], the pKi is above 8.30.

`COc1ccc2c(c1)C(=O)N(C[C@@]1(C#Cc3ccccc3C)NC(=O)NC1=O)C2` [Compound 1062]: the pKi was above 8.30.

Take `COc1ccc2c(c1)C(=O)N(C[C@@]1(C#Cc3cncc(O)c3)NC(=O)NC1=O)C2` [Compound 1063]: the pKi is above 8.30.

Take `COc1ccc2c(c1)C(=O)N(C[C@@]1(C#Cc3ccc(C#N)s3)NC(=O)NC1=O)C2` [Compound 1064]: the pKi was above 8.30.

For `COc1ccc2c(c1)C(=O)N(C[C@@]1(C#Cc3ccc(C(=O)NC4CC4)cc3)NC(=O)NC1=O)C2` [Compound 1065], the pKi was above 8.30.

Regarding `COc1ccc2c(c1)C(=O)N(C[C@]1(C#Cc3cncc(O)c3)NC(=O)NC1=O)C2` [Compound 1066], the pKi is below 7.00.

Regarding `COc1ccc2c(c1)C(=O)N(C[C@]1(C#Cc3ccc(C(=O)NC4CC4)cc3)NC(=O)NC1=O)C2` [Compound 1067], the pKi is below 7.00.

As for `COc1ccc2c(c1)C(=O)N(C[C@]1(C#Cc3ccc(C#N)s3)NC(=O)NC1=O)C2` [Compound 1068], the pKi was below 7.00.

As for `COc1ccc2c(c1)C(=O)N(C[C@@]1(C#Cc3ccc4[nH]c(=O)[nH]c4c3)NC(=O)NC1=O)C2` [Compound 1069], the negative-log Ki (pKi) is above 8.30.

In the case of `COc1ccc2c(c1)C(=O)N(C[C@@]1(C#Cc3csc(CN)c3)NC(=O)NC1=O)C2` [Compound 1070], the pKi is above 8.30.

`COc1ccc2c(c1)C(=O)N(C[C@@]1(C#Cc3cc(Cl)c(Br)s3)NC(=O)NC1=O)C2` [Compound 1071]: the pKi is above 8.30.

Turning to `COc1ccc2c(c1)C(=O)N(C[C@@]1(C#Cc3ccc(CO)s3)NC(=O)NC1=O)C2` [Compound 1072], the pKi was above 8.30.

As to `COc1ccc2c(c1)C(=O)N(C[C@]1(C#Cc3ccc(C(C)N)cc3)NC(=O)NC1=O)C2` (stereo partly shown) [Compound 1073], the pKi is below 7.00.

In the case of `CNCc1cc(C#C[C@@]2(CN3Cc4ccc(OC)cc4C3=O)NC(=O)NC2=O)cs1` [Compound 1074], the pKi is below 7.00.

Regarding `COc1ccc2c(c1)C(=O)N(C[C@]1(C#Cc3ccc(C(C)O)cc3)NC(=O)NC1=O)C2` (stereo partly shown) [Compound 1075], the pKi is below 7.00.

In the case of `COc1ccc2c(c1)C(=O)N(C[C@@]1(C#Cc3ccc([C@H](C)N)cc3)NC(=O)NC1=O)C2` [Compound 1076], the pKi was above 8.30.

Regarding `CNCc1cc(C#C[C@@]2(CN3Cc4ccc(OC)cc4C3=O)NC(=O)NC2=O)cs1` [Compound 1077], the pKi was above 8.30.

As to `COc1ccc2c(c1)C(=O)N(C[C@@]1(C#Cc3ccc(C(C)O)cc3)NC(=O)NC1=O)C2` (stereo partly shown) [Compound 1078], the pKi was above 8.30.

In the case of `COc1ccc2c(c1)C(=O)N(C[C@@]1(C#Cc3cnccc3CO)NC(=O)NC1=O)C2` [Compound 1079], the pKi is above 8.30.

As for `COc1ccc2c(c1)C(=O)N(C[C@@]1(C#Cc3sccc3Cl)NC(=O)NC1=O)C2` [Compound 1080], the pKi was above 8.30.

On to `CON=Cc1ccc(C#C[C@@]2(CN3Cc4ccc(OC)cc4C3=O)NC(=O)NC2=O)cc1` [Compound 1081], for which the pKi is below 7.00.

Consider `CO/N=C(/C)c1ccc(C#C[C@]2(CN3Cc4ccc(OC)cc4C3=O)NC(=O)NC2=O)s1` [Compound 1082], for which the pKi is above 8.30.

For `CO/N=C(\C)c1ccc(C#C[C@]2(CN3Cc4ccc(OC)cc4C3=O)NC(=O)NC2=O)s1` [Compound 1083], the pKi is above 8.30.

Still in this assay, the particulars now being: rhTACEc 70 pM, 30 μM SPDL-3, 90 min pre-incubation at 25° C.; read-out: Ki (nM), TACE inhibitory activity.
For `COc1ccc2c(c1)C(=O)N(C[C@@]1(C#Cc3cccnc3C)NC(=O)NC1=O)C2` [Compound 1003], the Ki came to 0.11 nM.

In the case of `COc1ccc2c(c1)C(=O)N(C[C@@]1(C#Cc3ccc4nc(N)[nH]c4c3)NC(=O)NC1=O)C2` [Compound 1009], the Ki stood at 1.33 nM.

By pKi is commonly meant the Ki on a negative log10 scale, so that one unit is a factor of ten. One may read the Ki as a measure of affinity in units of concentration, obtained from inhibition or displacement.
